In the supplement of paper PMC10883282:

Tests used:
Test in all cases: relative viability vs DMSO control (72 h) (fraction); higher = more viable cells
A204 = system: A204
Method in brief: (§1)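 Sarcoma cell lines were grown in 384-well plates seeded toward 80–90% confluence and exposed 24 h later to serially diluted compound. After 72 h at 37 °C and 5% CO2, with 0.1% DMSO vehicle and a 5 µM positive control on the plates, ATPLite was read. Relative viability, given as percent growth averaged over up to triplicate wells, was rescaled so that 1 is full and 0 is none.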

G401 = system: G401
Method in brief: as §1

HS729 = system: HS729
Method in brief: as §1

KHOS-240S = system: KHOS-240S
Method in brief: as §1

MES-SA = system: MES-SA
Method in brief: as §1

SK-ES-1 = system: SK-ES-1
Method in brief: as §1

SK-LMS-1 = system: SK-LMS-1
Method in brief: as §1

SW1353 = system: SW1353
Method in brief: as §1

SW684 = system: SW684
Method in brief: as §1

SW872 = system: SW872
Method in brief: as §1

SW982 = system: SW982
Method in brief: as §1

SYO-1 = system: SYO-1
Method in brief: as §1

Cc1nc(Nc2ncc(C(=O)Nc3c(C)cccc3Cl)s2)cc(N2CCN(CCO)CC2)n1 [Dasatinib]
Settings | relative viability
A204, 0.00017 µM | 1.08
A204, 0.00051 µM | 1.04
A204, 0.00152 µM | 1.06
A204, 0.00457 µM | 1.02
A204, 0.01372 µM | 0.83
A204, 0.04115 µM | 0.501
A204, 0.1235 µM | 0.376
A204, 0.3704 µM | 0.356
A204, 1.111 µM | 0.356
A204, 3.333 µM | 0.314
A204, 10 µM | 0.281
G401, 0.00017 µM | 1
G401, 0.00051 µM | 0.996
G401, 0.00152 µM | 1.015
G401, 0.00457 µM | 1
G401, 0.01372 µM | 0.959
G401, 0.04115 µM | 0.876
G401, 0.1235 µM | 0.833
G401, 0.3704 µM | 0.789
G401, 1.111 µM | 0.7831
G401, 3.333 µM | 0.69
G401, 10 µM | 0.391
HS729, 0.00017 µM | 0.947
HS729, 0.00051 µM | 0.959
HS729, 0.00152 µM | 0.95
HS729, 0.00457 µM | 0.869
HS729, 0.01372 µM | 0.796
HS729, 0.04115 µM | 0.696
HS729, 0.1235 µM | 0.633
HS729, 0.3704 µM | 0.618
HS729, 1.111 µM | 0.609
HS729, 3.333 µM | 0.585
HS729, 10 µM | 0.581
KHOS-240S, 0.00017 µM | 1.06
KHOS-240S, 0.00051 µM | 1.04
KHOS-240S, 0.00152 µM | 1.01
KHOS-240S, 0.00457 µM | 0.957
KHOS-240S, 0.01372 µM | 0.816
KHOS-240S, 0.04115 µM | 0.708
KHOS-240S, 0.1235 µM | 0.494
KHOS-240S, 0.3704 µM | 0.337
KHOS-240S, 1.111 µM | 0.279
KHOS-240S, 3.333 µM | 0.25
KHOS-240S, 10 µM | 0.198
MES-SA, 0.00017 µM | 0.935
MES-SA, 0.00051 µM | 0.919
MES-SA, 0.00152 µM | 0.903
MES-SA, 0.00457 µM | 0.91
MES-SA, 0.01372 µM | 0.879
MES-SA, 0.04115 µM | 0.825
MES-SA, 0.1235 µM | 0.799
MES-SA, 0.3704 µM | 0.791
MES-SA, 1.111 µM | 0.8428
MES-SA, 3.333 µM | 0.728
MES-SA, 10 µM | 0.258
SK-ES-1, 0.00017 µM | 1.04
SK-ES-1, 0.00051 µM | 1.03
SK-ES-1, 0.00152 µM | 1.038
SK-ES-1, 0.00457 µM | 1.05
SK-ES-1, 0.01372 µM | 1.02
SK-ES-1, 0.04115 µM | 0.975
SK-ES-1, 0.1235 µM | 0.993
SK-ES-1, 0.3704 µM | 0.934
SK-ES-1, 1.111 µM | 0.896
SK-ES-1, 3.333 µM | 0.673
SK-ES-1, 10 µM | 0.402
SK-LMS-1, 0.00017 µM | 1.03
SK-LMS-1, 0.00051 µM | 1.06
SK-LMS-1, 0.00152 µM | 1.09
SK-LMS-1, 0.00457 µM | 1.04
SK-LMS-1, 0.01372 µM | 1.03
SK-LMS-1, 0.04115 µM | 0.895
SK-LMS-1, 0.1235 µM | 0.722
SK-LMS-1, 0.3704 µM | 0.623
SK-LMS-1, 1.111 µM | 0.611
SK-LMS-1, 3.333 µM | 0.656
SK-LMS-1, 10 µM | 0.4228
SW684, 0.00017 µM | 1.166
SW684, 0.00051 µM | 1.15
SW684, 0.00152 µM | 1.18
SW684, 0.00457 µM | 1.18
SW684, 0.01372 µM | 1.15
SW684, 0.04115 µM | 1
SW684, 0.1235 µM | 0.739
SW684, 0.3704 µM | 0.625
SW684, 1.111 µM | 0.6057
SW684, 3.333 µM | 0.619
SW684, 10 µM | 0.457
SW872, 0.00017 µM | 1.03
SW872, 0.00051 µM | 1.02
SW872, 0.00152 µM | 1.01
SW872, 0.00457 µM | 0.957
SW872, 0.01372 µM | 0.86
SW872, 0.04115 µM | 0.779
SW872, 0.1235 µM | 0.639
SW872, 0.3704 µM | 0.551
SW872, 1.111 µM | 0.521
SW872, 3.333 µM | 0.481
SW872, 10 µM | 0.359
SW982, 0.00017 µM | 1.05
SW982, 0.00051 µM | 1.04
SW982, 0.00152 µM | 1.04
SW982, 0.00457 µM | 0.99
SW982, 0.01372 µM | 0.854
SW982, 0.04115 µM | 0.641
SW982, 0.1235 µM | 0.389
SW982, 0.3704 µM | 0.277
SW982, 1.111 µM | 0.259
SW982, 3.333 µM | 0.258
SW982, 10 µM | 0.218
SW1353, 0.00017 µM | 0.979
SW1353, 0.00051 µM | 0.982
SW1353, 0.00152 µM | 0.996
SW1353, 0.00457 µM | 0.956
SW1353, 0.01372 µM | 0.888
SW1353, 0.04115 µM | 0.704
SW1353, 0.1235 µM | 0.59
SW1353, 0.3704 µM | 0.46
SW1353, 1.111 µM | 0.4271
SW1353, 3.333 µM | 0.411
SW1353, 10 µM | 0.372
SYO-1, 0.00017 µM | 0.917
SYO-1, 0.00051 µM | 0.923
SYO-1, 0.00152 µM | 0.91
SYO-1, 0.00457 µM | 0.865
SYO-1, 0.01372 µM | 0.779
SYO-1, 0.04115 µM | 0.704
SYO-1, 0.1235 µM | 0.645
SYO-1, 0.3704 µM | 0.573
SYO-1, 1.111 µM | 0.528
SYO-1, 3.333 µM | 0.415
SYO-1, 10 µM | 0.188
